Values after ≈ are worked out from the molar mass of the structure shown. Read-outs that look alike come from different tables or passages of the source. *1 amine or outer side, *2 acyl side, *3 side chain or, on linkers, in order; H or OH if unused. Where a SMILES comes first, the peptide text is derived from it. Bridges are numbered along the chain shown (N, C = ends). [ ]: non-standard residue; d: D form. The star is where a group is joined. ξ: configuration not given here. Piperazine(2S-CO,4-Me) = CN1CCN[C@H](C(=O)O)C1; Phe(3,5-F2) = N[C@@H](Cc1cc(F)cc(F)c1)C(=O)O; NH(1-Me-indolin-5-yl) = CN1CCc2cc(N*)ccc21; Morpholine(3S-CO) = O=C(O)[C@@H]1COCCN1; Pro(4S-Me) = C[C@@H]1CN[C@H](C(=O)O)C1; NH(4-Cl-2-F-phenyl) = Fc1cc(Cl)ccc1N*; Pro(4R-Me) = C[C@H]1CN[C@H](C(=O)O)C1; NH(3,4-Me2-phenyl) = Cc1ccc(N*)cc1C; NMeaThr = CN[C@H](C(=O)O)[C@H](C)O; Hyp = O=C(O)[C@@H]1C[C@@H](O)CN1; NH(4-Me-phenyl) = Cc1ccc(N*)cc1; ξNMeThr = CNC(C(=O)O)[C@@H](C)O; aThr = C[C@H](O)[C@H](N)C(=O)O; Pip = O=C(O)[C@@H]1CCCCN1; NMeA = CN[C@@H](C)C(=O)O; X1 = N#Cc1cc(N*)ccc1F; CO = O=C([*:1])[*:2]
What was measured:
[1] = molecular target: T1, Sa-ClpP (Staphylococcus aureus, UniProt Q2G036); assay: ADEP displacement fluorescence polarization assay (FP probe ADEP 2591); assay type: binding
T1 construct: made in house; host or cells: E. coli BL21(DE3)
T1 sequence (Q2G036 1-195): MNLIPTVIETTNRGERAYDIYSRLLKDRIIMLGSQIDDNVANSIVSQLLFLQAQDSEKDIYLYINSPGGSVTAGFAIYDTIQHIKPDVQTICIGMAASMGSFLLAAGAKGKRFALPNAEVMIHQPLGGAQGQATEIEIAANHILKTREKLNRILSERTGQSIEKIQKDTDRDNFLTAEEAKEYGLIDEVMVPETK
Outline: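 Probe displacement was measured in mP after compounds sat 120 min at room temperature with pre-equilibrated (1 h) Sa-ClpP (15 μM) and ADEP 2591 FP probe (50 nM) in pH 8.0 Tris-HCl with 2% DMSO. Data were scaled between DMSO and 200 μM ADEP 2378 and fit by variable-slope log-inhibitor regression.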

[2] = tested on: Bacillus subtilis, ATCC 23857; assay: Minimal inhibitory concentration assay (microbroth dilution); assay type: cell-based
Outline: (§1)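 Paired MICs against USA 300 and its ClpP-inactivated counterpart test whether killing runs through ClpP. All strains: two-fold broth dilutions from 200 μM final, ~10^5 cfu/mL inoculum, overnight at 37 °C in air, lowest growth-free concentration read by eye.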

[3] = tested on: Staphylococcus aureus, ATCC 29213; assay: as above; assay type: cell-based; conditions: ATCC29213, read-out: Minimal Inhibitory Concentrations S. aureus ATCC 29213
Outline: as §1

[4] = tested on: Staphylococcus aureus, NRS70; assay: as above; assay type: cell-based
Outline: as §1

[5] = tested on: Streptococcus pyogenes, ATCC 700294; assay: as above; assay type: cell-based
Outline: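 Plates with two-fold compound dilution series in broth were incubated overnight, aerobically, at 37° C, following CLSI microdilution guidance.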

[6] = Bacillus subtilis, ATCC23857; read-out: Minimal Inhibitory Concentrations B. subtilis ATCC 23857
[7] = Staphylococcus aureus, NRS70; read-out: Minimal Inhibitory Concentrations S. aureus NRS70
[8] = Streptococcus pyogenes, ATCC700294; read-out: Minimal Inhibitory Concentrations S. pyogenes ATCC 700294
[9] = Bacillus subtilis, ATCC23857, read-out: Minimal Inhibitory Concentrations B. subtilis ATCC 23857
[10] = Staphylococcus aureus, NRS70, read-out: Minimal Inhibitory Concentrations S. aureus NRS70
[11] = Streptococcus pyogenes, ATCC700294, read-out: Minimal Inhibitory Concentrations S. pyogenes ATCC 700294
[12] = displacement of FP probe ADEP 2591 from Sa-ClpP, read-out: ADEP Displacement IC50

Structure (SMILES) | IC50 [1] | MIC [2, 6] | MIC [3] | MIC [4, 7] | MIC [5, 8] | MIC [2, 9] | MIC [4, 10] | MIC [5, 11] | MIC ([2]; B. subtilis ATCC 23857; read-out: Minimal Inhibitory Concentrations B. subtilis ATCC 23857) | IC50 [1, 12]
C[C@@H]1C[C@H]2C(=O)O[C@@H](C)[C@H](NC(=O)[C@H](Cc3cc(F)cc(F)c3)NC(=O)Nc3ccc(F)c(C#N)c3)C(=O)N3C[C@H](O)C[C@H]3C(=O)N3CCOC[C@H]3C(=O)N[C@@H](C)C(=O)N2C1 [Compound 326, (S)-2-(3-(3-cyano-4-fluorophenyl)ureido)-3-(3,5-difluorophenyl)-N-((6aS,8R,12S,13S,15aS,17R,21S,23aS)-8-hydroxy-13,17,21-trimethyl-6,11,15,20,23-pentaoxooctadecahydro-6H,11H,15H-[1,4]oxazino[3,4-i]dipyrrolo[2,1-c:2′,1′-l][1]oxa[4,7,10,13]tetraazacyclo-hexadecin-12-yl)propanamide] ({X1-CO}-[Phe(3,5-F2)][aThr][Hyp][Morpholine(3S-CO)]A[Pro(4R-Me)]; ester 2-C) | 7.52 ± 0.3 µM | 20 µM (≈ 17.1 µg/mL) | 10 µM (≈ 8.55 µg/mL) | 2.5 µM (≈ 2.14 µg/mL) | 1.25 µM (≈ 1.07 µg/mL) |  |  |  |  | 
C[C@@H]1C[C@H]2C(=O)O[C@@H](C)[C@H](NC(=O)[C@H](Cc3cc(F)cc(F)c3)NC(=O)Nc3ccc(Cl)cc3F)C(=O)N3CCC[C@H]3C(=O)N3CCOC[C@H]3C(=O)N[C@@H](C)C(=O)N2C1 [Compound 314, (S)-2-(3-(4-chloro-2-fluorophenyl)ureido)-3-(3,5-difluorophenyl)-N-((6aS,12S,13S,15aS,17R,21S,23aS)-13,17,21-trimethyl-6,11,15,20,23-pentaoxooctadecahydro-6H,11H,15H-[1,4]oxazino[3,4-i]dipyrrolo[2,1-c:2′,1′-l][1]oxa[4,7,10,13]tetraazacyclo-hexadecin-12-yl)propanamide] ({NH(4-Cl-2-F-phenyl)-CO}-[Phe(3,5-F2)][aThr]P[Morpholine(3S-CO)]A[Pro(4R-Me)]; ester 2-C) | 7.2 ± 0.3 µM | < 0.02 µM | < 0.02 µM | < 0.02 µM | < 0.02 µM |  |  |  |  | 
C[C@@H]1C[C@H]2C(=O)OC[C@H](NC(=O)[C@H](Cc3cc(F)cc(F)c3)NC(=O)Nc3ccc(Cl)cc3F)C(=O)N3CCC[C@H]3C(=O)N3CCN(C)C[C@H]3C(=O)N[C@@H](C)C(=O)N2C1 [Compound 330, (S)-2-(3-(4-chloro-2-fluorophenyl)ureido)-3-(3,5-difluorophenyl)-N-((6aS,12S,15aS,17R,21S,23aS)-2,17,21-trimethyl-6,11,15,20,23-pentaoxooctadecahydro-2H,6H,11H,15H-pyrazino[2,1-i]dipyrrolo[2,1-c:2′,1′-l][1]oxa[4,7,10,13]tetraazacyclohexadecin-12-yl)propanamide] ({NH(4-Cl-2-F-phenyl)-CO}-[Phe(3,5-F2)]SP[Piperazine(2S-CO,4-Me)]A[Pro(4R-Me)]; ester 2-C) | 3.74 ± 0.2 µM | < 0.02 µM | 0.078 µM (≈ 0.0661 µg/mL) | 0.078 µM (≈ 0.0661 µg/mL) | 0.078 µM (≈ 0.0661 µg/mL) |  |  |  |  | 
C[C@@H]1C[C@H]2C(=O)O[C@@H](C)[C@H](NC(=O)[C@H](Cc3cc(F)cc(F)c3)NC(=O)Nc3ccc4c(c3)CCN4C)C(=O)N3CCC[C@H]3C(=O)N(C)C([C@@H](C)O)C(=O)N[C@@H](C)C(=O)N2C1 (stereo partly drawn) [Compound 311, (S)-3-(3,5-difluorophenyl)-N-((2R,6S,9R,11aS,17S,18S,20aS)-9-((R)-1-hydroxyethyl)-2,6,10,18-tetramethyl-5,8,11,16,20-pentaoxohexadecahydro-1H,5H,16H-dipyrrolo[2,1-c:2′,1′-l][1]oxa[4,7,10,13]tetraazacyclohexadecin-17-yl)-2-(3-(1-methylindolin-5-yl)ureido)propanamide] ({NH(1-Me-indolin-5-yl)-CO}-[Phe(3,5-F2)][aThr]P[ξNMeThr]A[Pro(4R-Me)]; ester 2-C) | 7.5 ± 0.3 µM |  | 0.156 µM (≈ 0.133 µg/mL) |  |  | 0.313 µM (≈ 0.267 µg/mL) | 0.156 µM (≈ 0.133 µg/mL) | 0.156 µM (≈ 0.133 µg/mL) |  | 
Cc1ccc(NC(=O)N[C@@H](Cc2cc(F)cc(F)c2)C(=O)N[C@H]2COC(=O)[C@@H]3C[C@@H](C)CN3C(=O)[C@H](C)NC(=O)[C@@H]3COCCN3C(=O)[C@@H]3C[C@@H](O)CN3C2=O)cc1 [Compound 317, (S)-3-(3,5-difluorophenyl)-N-((6aS,8R,12S,15aS,17R,21S,23aS)-8-hydroxy-17,21-dimethyl-6,11,15,20,23-pentaoxooctadecahydro-6H,11H,15H-[1,4]oxazino[3,4-i]dipyrrolo[2,1-c:2′,1′-l][1]oxa[4,7,10,13]tetraazacyclohexadecin-12-yl)-2-(3-(p-tolyl)ureido)propanamide] ({NH(4-Me-phenyl)-CO}-[Phe(3,5-F2)]S[Hyp][Morpholine(3S-CO)]A[Pro(4R-Me)]; ester 2-C) | 7.25 ± 0.5 µM |  | 2.5 µM (≈ 2.03 µg/mL) |  |  | 10 µM (≈ 8.12 µg/mL) | 2.5 µM (≈ 2.03 µg/mL) | 0.156 µM (≈ 0.127 µg/mL) |  | 
Cc1ccc(NC(=O)N[C@@H](Cc2cc(F)cc(F)c2)C(=O)N[C@@H]2C(=O)N3C[C@H](O)C[C@H]3C(=O)N3CCCC[C@H]3C(=O)N[C@@H](C)C(=O)N3C[C@H](C)C[C@H]3C(=O)O[C@H]2C)cc1C [Compound 212, (S)-3-(3,5-difluorophenyl)-2-(3-(3,4-dimethylphenyl)ureido)-N-((2R,6S,8aS,14aS,16R,20S,21S,23aS)-16-hydroxy-2,6,21-trimethyl-5,8,14,19,23-pentaoxooctadecahydro-1H,5H,14H,19H-pyrido[2,1-i]dipyrrolo[2,1-c:2′,1′-l][1]oxa[4,7,10,13]tetraazacyclohexadecin-20-yl)propanamide] ({NH(3,4-Me2-phenyl)-CO}-[Phe(3,5-F2)][aThr][Hyp][Pip]A[Pro(4R-Me)]; ester 2-C) | 6.9 ± 0.3 µM |  | 0.005 µM (≈ 0.00419 µg/mL) |  |  | < 0.2 µM | 0.002 µM (≈ 0.00168 µg/mL) | < 0.2 µM |  | 
C[C@@H]1C[C@H]2C(=O)OC[C@H](NC(=O)[C@H](Cc3ccccc3)NC(=O)Nc3ccc(OC(F)(F)F)cc3)C(=O)N3CCC[C@H]3C(=O)N3CCCC[C@H]3C(=O)N[C@@H](C)C(=O)N2C1 [Compound 205] | 21.6 ± 1.4 µM |  | 0.39 µM (≈ 0.323 µg/mL) | 0.2 µM (≈ 0.166 µg/mL) | 0.1 µM (≈ 0.0828 µg/mL) |  |  |  | 0.2 µM (≈ 0.166 µg/mL) | 
Cc1ccc(NC(=O)N[C@@H](Cc2cc(F)cc(F)c2)C(=O)N[C@@H]2C(=O)N3C[C@H](O)C[C@H]3C(=O)N(C)[C@@H](C)C(=O)N[C@@H](C)C(=O)N3C[C@@H](C)C[C@H]3C(=O)O[C@H]2C)cc1 [Compound 214, (S)-3-(3,5-difluorophenyl)-N-((2S,6S,9S,11aS,13R,17S,18S,20aS)-13-hydroxy-2,6,9,10,18-pentamethyl-5,8,11,16,20-pentaoxohexadecahydro-1H,5H,16H-dipyrrolo[2,1-c:2′,1′-l][1]oxa[4,7,10,13]tetraazacyclohexadecin-17-yl)-2-(3-(p-tolyl)ureido)propanamide] ({NH(4-Me-phenyl)-CO}-[Phe(3,5-F2)][aThr][Hyp][NMeA]A[Pro(4S-Me)]; ester 2-C) |  |  | 0.391 µM (≈ 0.312 µg/mL) |  |  | 0.391 µM (≈ 0.312 µg/mL) | 0.391 µM (≈ 0.312 µg/mL) | 0.781 µM (≈ 0.623 µg/mL) |  | 5.8 ± 0.3 µM
Cc1ccc(NC(=O)N[C@@H](Cc2cc(F)cc(F)c2)C(=O)N[C@@H]2C(=O)N3CCC[C@H]3C(=O)N3CCOC[C@H]3C(=O)N[C@@H](C)C(=O)N3C[C@H](C)C[C@H]3C(=O)O[C@H]2C)cc1 [Compound 210, (S)-3-(3,5-difluorophenyl)-2-(3-(p-tolyl)ureido)-N-((6aS,12S,13S,15aS,17R,21S,23aS)-13,17,21-trimethyl-6,11,15,20,23-pentaoxooctadecahydro-6H,11H,15H-[1,4]oxazino[3,4-i]dipyrrolo[2,1-c:2′,1′-l][1]oxa[4,7,10,13]tetraazacyclohexadecin-12-yl)propanamide] ({NH(4-Me-phenyl)-CO}-[Phe(3,5-F2)][aThr]P[Morpholine(3S-CO)]A[Pro(4R-Me)]; ester 2-C) | 7.1 ± 0.2 µM |  | 0.003 µM (≈ 0.00243 µg/mL) |  |  | 0.02 µM (≈ 0.0162 µg/mL) | 0.0002 µM (≈ 0.000162 µg/mL) | 0.02 µM (≈ 0.0162 µg/mL) |  | 
Cc1ccc(NC(=O)N[C@@H](Cc2cc(F)cc(F)c2)C(=O)N[C@@H]2C(=O)N3CCC[C@H]3C(=O)N(C)[C@@H]([C@H](C)O)C(=O)N[C@@H](C)C(=O)N3C[C@@H](C)C[C@H]3C(=O)O[C@H]2C)cc1 [Compound 202, (S)-3-(3,5-difluorophenyl)-N-((2S,6S,9S,11aS,17S,18S,20aS)-9-((S)-1-hydroxyethyl)-2,6,10,18-tetramethyl-5,8,11,16,20-pentaoxohexadecahydro-1H,5H,16H-dipyrrolo[2,1-c:2′,1′-L][1]oxa[4,7,10,13]tetraazacyclohexadecin-17-yl)-2-(3-(p-tolyl)ureido)propanamide] ({NH(4-Me-phenyl)-CO}-[Phe(3,5-F2)][aThr]P[NMeaThr]A[Pro(4S-Me)]; ester 2-C) |  |  | 0.195 µM (≈ 0.158 µg/mL) |  |  | 0.195 µM (≈ 0.158 µg/mL) | 0.098 µM (≈ 0.0796 µg/mL) | 0.391 µM (≈ 0.317 µg/mL) |  | 6.6 ± 0.4 µM

Reference: patent publication US10457707B2, “Substituted urea depsipeptide analogs as activators of the CLPP endopeptidase” (priority 2015, dated 2019)
